Experiments:
[1] = target: T1, Dihydrofolate reductase (Gallus gallus) (UniProt P00378)
T1 sequence (whole entry): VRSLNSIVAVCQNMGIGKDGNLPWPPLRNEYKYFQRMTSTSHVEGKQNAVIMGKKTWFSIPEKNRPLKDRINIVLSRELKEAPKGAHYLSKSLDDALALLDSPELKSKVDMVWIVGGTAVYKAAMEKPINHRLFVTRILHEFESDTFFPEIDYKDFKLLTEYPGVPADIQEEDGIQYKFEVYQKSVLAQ

[2] = target: Dihydrofolate reductase (Lactobacillus casei) (UniProt P00381); settings: Lacticaseibacillus casei
[3] = target: T2, Dihydrofolate reductase (Homo sapiens) (UniProt P00374)
T2 sequence (whole entry): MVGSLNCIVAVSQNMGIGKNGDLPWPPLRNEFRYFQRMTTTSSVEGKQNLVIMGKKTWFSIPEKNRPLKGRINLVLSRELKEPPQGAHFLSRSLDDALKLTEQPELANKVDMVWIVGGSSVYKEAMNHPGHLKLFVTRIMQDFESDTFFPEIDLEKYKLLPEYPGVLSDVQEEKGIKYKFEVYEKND

Chain of Dihydrofolate reductase (Lactobacillus casei) (P00381 whole entry): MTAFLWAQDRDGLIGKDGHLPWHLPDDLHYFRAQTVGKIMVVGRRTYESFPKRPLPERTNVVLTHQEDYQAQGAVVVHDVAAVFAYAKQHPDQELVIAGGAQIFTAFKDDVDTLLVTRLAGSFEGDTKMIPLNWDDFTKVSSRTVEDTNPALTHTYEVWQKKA

SMILES | I / E100 [1] | I / E100 [2] | I / E100 [3]
CN(C)c1cccc2c(S(=O)(=O)NCCCCC(NC(=O)c3ccc(N(C)Cc4cnc5nc(N)nc(N)c5n4)cc3)C(=O)O)cccc12 (stereo unspecified) | 3.5 | 1.9 | 2.9
CN(Cc1cnc2nc(N)nc(N)c2n1)c1ccc(C(=O)NC(CCCCN)C(=O)O)cc1 (stereo unspecified) | 1.4 | 1 | 1

— ChEMBL document CHEMBL1122446
